Test results as given in ChEMBL document CHEMBL4152325, “Tacripyrimidines, the first tacrine-dihydropyrimidine hybrids, as multi-target-directed ligands for Alzheimer's disease” (Eur J Med Chem, 2018).
Calls of active or inactive are those of the source. The rule behind the calls is not given here.

Columns and labels:
Acetylcholinesterase [1] = target: T1, Acetylcholinesterase (Homo sapiens, UniProt P22303); assay: Inhibition of recombinant human AChE expressed in HEK293 cells using acetylthiocholine as substrate pretreated for 20 mins followed by substrate addition by Ellman's method; type: cell-based
in vitro [2] = conditions: human, HepG2 cells
Description: Cytotoxicity against human HepG2 cells assessed as cell viability at 100 uM after 24 hrs by CellTiter-Glo luminescence assay relative to control

in vitro [3] = conditions: human, HepG2 cells; remark: listed apart in the source
Description: Cytotoxicity against human HepG2 cells assessed as cell viability at 300 uM after 24 hrs by CellTiter-Glo luminescence assay relative to control

in vitro [4] = conditions: human, HepG2 cells; remark: listed apart in the source
Description: Cytotoxicity against human HepG2 cells assessed as cell viability at 10 uM after 24 hrs by CellTiter-Glo luminescence assay relative to control

Cholinesterase = Cholinesterase (Homo sapiens, UniProt P06276); assay: Inhibition of recombinant human serum BChE using butyrylthiocholine as substrate pretreated for 20 mins followed by substrate addition by Ellman's method
[5] = target: Amyloid-beta precursor protein (Homo sapiens) (UniProt P05067); assay: Inhibition of HFIP-pretreated amyloid beta (1 to 42 residues) (unknown origin) self aggregation at 50 uM after 24 hrs by ThT-based fluorometric method relative to control
Acetylcholinesterase [6] = target: T1, Acetylcholinesterase; assay: Non-competitive inhibition of recombinant human AChE expressed in HEK293 cells using varying levels of acetylthiocholine as substrate by Lineweaver-burk double reciprocal plot analysis; type: cell-based
Acetylcholinesterase [7] = target: T1, Acetylcholinesterase; assay: Non-competitive inhibition of recombinant human AChE expressed in HEK293 cells assessed as enzyme-substrate-inhibitor complex using varying levels of acetylthiocholine as substrate by Dixon plot analysis
Acetylcholinesterase [8] = target: T1, Acetylcholinesterase; assay: Potency index, ratio of tacrine IC50 to test compound IC50 for recombinant human AChE expressed in HEK293 cells; type: cell-based

Chain of Amyloid-beta precursor protein (Homo sapiens) (P05067 whole entry, the tested form may be a part): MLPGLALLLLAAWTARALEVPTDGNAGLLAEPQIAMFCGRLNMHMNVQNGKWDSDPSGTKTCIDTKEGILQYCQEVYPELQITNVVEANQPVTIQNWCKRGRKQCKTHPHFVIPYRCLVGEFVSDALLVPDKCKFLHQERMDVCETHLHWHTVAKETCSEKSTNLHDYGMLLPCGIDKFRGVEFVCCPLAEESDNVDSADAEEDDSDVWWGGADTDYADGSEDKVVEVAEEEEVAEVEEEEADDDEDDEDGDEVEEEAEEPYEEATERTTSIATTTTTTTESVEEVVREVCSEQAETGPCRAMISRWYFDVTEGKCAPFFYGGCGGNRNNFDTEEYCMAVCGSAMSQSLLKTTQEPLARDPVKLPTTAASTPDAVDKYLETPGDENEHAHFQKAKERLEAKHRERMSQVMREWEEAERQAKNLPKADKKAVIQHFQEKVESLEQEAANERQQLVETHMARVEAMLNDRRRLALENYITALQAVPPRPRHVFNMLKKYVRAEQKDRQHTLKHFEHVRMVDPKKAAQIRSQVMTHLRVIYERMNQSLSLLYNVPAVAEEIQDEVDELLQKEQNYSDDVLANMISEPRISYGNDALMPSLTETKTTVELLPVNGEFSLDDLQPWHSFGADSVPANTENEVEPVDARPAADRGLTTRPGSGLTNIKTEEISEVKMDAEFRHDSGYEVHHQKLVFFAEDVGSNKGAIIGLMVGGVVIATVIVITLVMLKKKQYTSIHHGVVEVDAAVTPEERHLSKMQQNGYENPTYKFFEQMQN
T1 sequence (P22303 whole entry): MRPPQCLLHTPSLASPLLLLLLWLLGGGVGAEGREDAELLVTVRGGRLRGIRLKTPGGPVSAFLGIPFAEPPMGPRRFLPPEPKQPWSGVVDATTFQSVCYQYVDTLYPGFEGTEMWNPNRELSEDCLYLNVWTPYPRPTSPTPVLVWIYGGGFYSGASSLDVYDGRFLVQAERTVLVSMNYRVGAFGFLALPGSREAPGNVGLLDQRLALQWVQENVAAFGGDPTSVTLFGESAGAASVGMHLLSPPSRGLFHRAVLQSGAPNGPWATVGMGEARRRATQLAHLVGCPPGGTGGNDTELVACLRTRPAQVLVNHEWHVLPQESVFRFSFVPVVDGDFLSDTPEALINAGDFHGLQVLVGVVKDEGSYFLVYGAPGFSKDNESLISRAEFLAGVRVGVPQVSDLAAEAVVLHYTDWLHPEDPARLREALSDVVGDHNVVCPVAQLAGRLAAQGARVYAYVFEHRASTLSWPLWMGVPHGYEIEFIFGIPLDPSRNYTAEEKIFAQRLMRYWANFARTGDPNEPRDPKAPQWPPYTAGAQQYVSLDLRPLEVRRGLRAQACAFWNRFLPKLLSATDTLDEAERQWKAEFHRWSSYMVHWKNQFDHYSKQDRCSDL
Chain of Cholinesterase (P06276 whole entry, the tested form may be a part): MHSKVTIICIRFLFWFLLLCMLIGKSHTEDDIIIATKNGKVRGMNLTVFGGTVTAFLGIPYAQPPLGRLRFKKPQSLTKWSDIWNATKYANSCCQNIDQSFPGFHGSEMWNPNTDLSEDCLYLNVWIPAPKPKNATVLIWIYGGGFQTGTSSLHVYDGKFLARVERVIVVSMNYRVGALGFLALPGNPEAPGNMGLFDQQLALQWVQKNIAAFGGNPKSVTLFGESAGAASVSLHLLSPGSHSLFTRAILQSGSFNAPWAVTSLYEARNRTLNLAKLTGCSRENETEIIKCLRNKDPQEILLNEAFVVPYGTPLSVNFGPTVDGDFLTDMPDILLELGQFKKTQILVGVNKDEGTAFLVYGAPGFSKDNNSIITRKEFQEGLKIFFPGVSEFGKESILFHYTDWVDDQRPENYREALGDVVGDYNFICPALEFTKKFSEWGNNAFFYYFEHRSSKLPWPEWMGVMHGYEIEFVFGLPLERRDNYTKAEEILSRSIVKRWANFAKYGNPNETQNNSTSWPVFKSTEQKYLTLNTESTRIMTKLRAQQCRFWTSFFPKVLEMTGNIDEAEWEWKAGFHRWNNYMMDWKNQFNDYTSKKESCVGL

SMILES | IC50 (Acetylcholinesterase [1]) [µM] | viability at 24 h, 100 µM (in vitro [2]) [%] | viability at 24 h, 300 µM (in vitro [3]) [%] | viability at 24 h, 10 µM (in vitro [4]) [%] | IC50 (Cholinesterase) [µM] | inhibition [5] [%] | inhibition (Acetylcholinesterase [6]) | Ki (Acetylcholinesterase [7]) [µM] | Ratio IC50 (Acetylcholinesterase [8])
Cc1ccc(C2NC(=S)Nc3nc4c(c(N)c32)CCCC4)cc1 (stereo not drawn) | 23.8 | 62 | 45.2 | 90.6 | 3.47 |  |  |  | 
Nc1c2c(nc3c1C(c1ccc4c(c1)OCO4)NC(=S)N3)CCCC2 (stereo not drawn) | 8.18 | 91.2 | 64.1 | 103 | 37.5 |  |  |  | 
Nc1c2c(nc3c1C(c1ccc(Cl)cc1)NC(=S)N3)CCCC2 (stereo not drawn) | 5.28 | 27.9 | 9 | 80 | 0.372 | 10 |  |  | 
COc1ccccc1C1NC(=S)Nc2nc3c(c(N)c21)CCCC3 (stereo not drawn) | 31.2 | 81.1 | 68.1 | 98.1 | 11.7 |  |  |  | 
COc1cccc(C2NC(=S)Nc3nc4c(c(N)c32)CCCC4)c1 (stereo not drawn) | 3.05 | 102 | 97.5 | 100 | 3.19 | 10 | Active | 3.88 | 
Nc1c2c(nc3c1C(c1ccc(F)cc1)NC(=S)N3)CCCC2 (stereo not drawn) | 31 | 79.1 | 72.5 | 104 | 10 |  |  |  | 
Cc1cccc(C2NC(=S)Nc3nc4c(c(N)c32)CCCC4)c1 (stereo not drawn) | 10.1 | 82.5 | 68.1 | 97.6 | 2.65 |  |  |  | 
COc1ccc(C2NC(=S)Nc3nc4c(c(N)c32)CCCC4)cc1 (stereo not drawn) | 7.64 | 100 | 77.6 | 97.9 | 1.75 |  |  |  | 
Nc1c2c(nc3c1C(c1cccc(Br)c1)NC(=S)N3)CCCC2 (stereo not drawn) | 0.0373 | 76.8 | 62.3 | 103 | 1.27 | 10 | Active | 0.147 | 9.4 to 10
Nc1c2c(nc3c1C(c1ccccc1)NC(=S)N3)CCCC2 (stereo not drawn) | 10.8 | 97.2 | 68.2 | 105 | 5.68 |  |  |  | 
CN(C)c1ccc(C2NC(=S)Nc3nc4c(c(N)c32)CCCC4)cc1 (stereo not drawn) | 24.1 | 82.5 | 78.9 | 87.3 | 154 |  |  |  | 
Nc1c2c(nc3c1C(c1cccc([N+](=O)[O-])c1)NC(=S)N3)CCCC2 (stereo not drawn) | 29.8 | 96.5 | 82.7 | 102 | 2.68 |  |  |  | 
